In US20260232648A1, “GROWTH HORMONE SECRETION PROMOTER” (SCOHIA PHARMA, INC., priority 2023, published 2026):

Tests used:
growth hormone secretion = assay: Growth hormone secretion enhancing action by single dose administration in human (Phase 1 study); type: in vivo
Protocol: (§1) The examples in this section show the measurement results of blood anterior pituitary hormone concentrations using blood samples from a dose escalation study targeting healthy Japanese adult men, from A Randomized, Double-Blind, Placebo-Controlled, Phase 1 Study (jRCT2051210027) targeting healthy adults, which was conducted to examine the safety and tolerability, pharmacokinetics, and pharmacodynamic action of a single administration of test compound 1.
In a randomized, double-blind, placebo-controlled, parallel-group comparison, dose-escalation study consisting of 7 cohorts, a single dose of test compound 1 (1, 3, 10, 20, 40, 80 and 160 mg) or placebo was orally administered under fasting conditions. Eight test subjects (6 in the active drug group and 2 in the placebo group) participated in each cohort. The concomitant use of all medications was prohibited from 28 days before hospitalization until discharge. […]
The concentration of anterior pituitary hormone was measured using blood from the placebo administration group of all cohorts and the test subjects who received administration of 1 mg or 10 mg of test compound 1, at 0.5 hr before administration and 2, 4, 6, 8, and 10 hr after administration. […]

human SSTR 5 = biological target: T1, human SSTR 5 (Homo sapiens, UniProt P35346); assay: Radiolabeled ligand binding assay, human SSTR subtype selectivity; conditions: SSTR5 versus SSTR1-4, 1 μM
T1 construct: expressed in transfected cells; host or cells: CHO-K1 cells (membrane fraction)
Protocol: The selectivity of test compounds for human SSTR subtypes was investigated by radiolabeled ligand binding assay. The membrane fraction of CHO-K1 cells expressing human SSTR1-5 was suspended in am assay buffer (25 mM HEPES (pH 7.4), 5 mM MgCl2, 1 mM CaCl2), 10 μg/mL saponin, 0.5% fatty-acid free BSA) and incubated for 1 hr in the presence of 1 μM test compound 1 and [^125I]Tyr^11-somatostatin 14 (Perkin Elmer). Thereafter, the solution containing the membrane fraction was transferred onto a filter plate, and after washing the filter six times with a wash buffer (25 mM HEPES, 5 mM MgCl2, 1 mM CaCl2), 50 μL of Microscint 20 (Packard) was added, and the radioactivity was measured using a TopCount (Perkin Elmer). The results of competitive activity of the test compound against the binding of the human SSTR subtypes with the labeled ligands are shown in Table 2.

[1] = system: secretion of other anterior pituitary hormones; assay: Blood concentrations of other anterior pituitary hormones after single dose administration in human (Phase 1 study); type: in vivo; conditions: healthy Japanese adult men; single oral dose 1 mg or 10 mg
Protocol: as §1
In a randomized, double-blind, placebo-controlled, parallel-group comparison, dose-escalation study consisting of 7 cohorts, a single dose of test compound 1 (1, 3, 10, 20, 40, 80 and 160 mg) or placebo was orally administered under fasting conditions. Eight test subjects (6 in the active drug group and 2 in the placebo group) participated in each cohort. The concomitant use of all medications was prohibited from 28 days before hospitalization until discharge.
The test subjects were inspected and examined within 28-2 days and 1 day before administration of test compound 1, and eligibility was confirmed based on the above-mentioned inclusion criteria and exclusion criteria. […] They were fasted for 10 hr before administration and 4 hr after administration until lunch, and took lunch at 13:[…]. The blood was collected 0.5 hr before and 1, 2, 4, 6, 8, and 10 hr after administration of test compound 1.
The concentration of anterior pituitary hormone was measured using blood from the placebo administration group of all cohorts and the test subjects who received administration of 1 mg or 10 mg of test compound 1, at 0.5 hr before administration and 2, 4, 6, 8, and 10 hr after administration. The concentrations of growth hormone, follicle-stimulating hormone, luteinizing hormone, thyroid-stimulating hormone, adrenocorticotropic hormone, and prolactin in blood were measured using the Human Growth Hormone Quantikine ELISA Kit (manufactured by R&D Systems), Follicle-Stimulating Hormone (Human) ELISA Kit (manufactured by Cayman Chemical), Luteinizing Hormome (Human) ELISA Kit (manufactured by Cayman Chemical), U-TSH ELISA (manufactured by BIOCHECK), ACTH ELISA Kit (manufactured by MB Biosciences GmbH), and Human Prolactin Quantikine ELISA Kit (manufactured by R&D Systems) according to the protocol described in the package insert of each kit.
The time course changes in the blood anterior pituitary hormone concentrations after oral administration of placebo (n=14) or test compound 1 at doses of 1 mg and 10 mg (n=6 for each) are shown in FIG. 1-6.

T1 sequence (P35346 whole entry): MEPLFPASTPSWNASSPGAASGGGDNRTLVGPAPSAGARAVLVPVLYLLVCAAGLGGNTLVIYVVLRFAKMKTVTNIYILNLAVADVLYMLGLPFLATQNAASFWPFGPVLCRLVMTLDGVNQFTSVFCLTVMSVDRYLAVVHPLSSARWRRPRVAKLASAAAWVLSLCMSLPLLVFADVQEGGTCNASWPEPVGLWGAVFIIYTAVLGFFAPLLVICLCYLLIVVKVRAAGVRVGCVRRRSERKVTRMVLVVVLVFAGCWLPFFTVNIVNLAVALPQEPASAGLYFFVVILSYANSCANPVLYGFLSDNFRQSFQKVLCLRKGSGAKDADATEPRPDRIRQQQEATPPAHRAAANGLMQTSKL

## CCCc1nc2c(cc1C(=O)O)C(=O)N(C1CCN(Cc3cc(C4CC4)c(-c4ccc(F)cc4)cc3OCC)CC1)CC2 [test compound 1, 6-(1-((2-cyclopropyl-5-ethoxy-4′-fluorobiphenyl-4-yl)methyl)piperidin-4-yl)-5-oxo-2-propyl-5,6,7,8-tetrahydro-1,6-naphthyridine-3-carboxylic acid]
Growth hormone secretion; healthy Japanese adult men, single oral dose 1 mg or 10 mg, fasting, 2-10 hr after administration
  growth hormone secretion (blood growth hormone concentration): clearly enhance growth hormone secretion
Growth hormone secretion; human, compared with literature values for patients with pediatric growth hormone deficiency
  increase in blood growth hormone concentration compared with growth hormone replacement therapy: corresponds to the blood growth hormone concentration obtained by growth hormone replacement therapy
Human SSTR 5
  selectivity of binding among the human SSTR subtypes: selectively binds to SSTR5
[1]
  secretion of adrenocorticotropic hormone (blood concentration): did not substantially affect
  secretion of follicle-stimulating hormone (blood concentration): did not substantially affect
  secretion of luteinizing hormone (blood concentration): did not substantially affect
  secretion of prolactin (blood concentration): did not substantially affect
  secretion of thyroid-stimulating hormone (blood concentration): did not substantially affect
